Molecules are shown by their SMILES.

One test deals with IL-6 (interleukin). Briefly: LUMINEX liquid-phase chip analysis of KB cell supernatant, IL-6. To be noted: KB cells; the larger the value, the stronger the anti-inflammatory ability; concentration not given. Type of test: cell-based, human. As for the experimental part:
(§1) Anti-inflammatory activity was assessed using the KB cell (the epidermis cancer cell in human oral cavity). During the experiment, the KB cell inoculated in the cultivating plate was treated with or without positive control or compound morusin. After the treatment, the supernatant of the cultivating medium was collected and stored in −80° C. refrigerator. Inflammation was assessed by measuring several inflammation markers: Prostaglandin E2 (PGE2) in the supernatant was detected by Enzyme-linked immunsorbent assay, and LUMINEX™ multifunctional liquid-phase chip analysis system was used for the detection of granulocyte […] colony stimulating factor (GM-CSF), tumor necrosis factor-alpha (TNF-α), and interleukins 1-beta and 6 (IL-1β and IL-6).
(§2) LUMINEX™ multifunctional liquid-phase chip analyses of GM-CSF, TNF-α, IL-1 and IL-6: The 96-well plate was enclosed with enclosing liquid for 30 minutes. Fluorescent microspheres were added into the 96-well plate after dilution. The standard and the samples to be measured were added, and incubated overnight at 4° C. The next day, the supernatant was discarded and 50 μL GM-CSF, TNF-α, IL-1β and IL-6 antibodies were added to each well. After being rinsed for 4 times, the 96-well plate was placed in a shaking table, which was in ambient temperature, to keep the plate away from light for 1 hour. […]

Test [1] concerns TNF-α (Tumor Necrosis Factor). Briefly: LUMINEX liquid-phase chip analysis of KB cell supernatant, TNF-α. The note with it: KB cells; the larger the value, the stronger the anti-inflammatory ability; concentration not given. Type of test: cell-based, human. The protocol:
as §1, §2

For a further test, the system named is GM-CSF. Briefly: LUMINEX liquid-phase chip analysis of KB cell supernatant, GM-CSF. To be noted: KB cells; the larger the value, the stronger the anti-inflammatory ability; concentration not given. Type of test: cell-based, human. The protocol: as §1, §2
The next test has as its system Prostaglandin E2 (PGE2). Briefly: PGE2 enzyme-linked immunosorbent assay in KB cell supernatant. Type of test: cell-based, human. The note with it: oral KB cell, PGE2 in supernatant by ELISA. As for the experimental part:
as §1

The subject of test [2] is Streptococcus mutans (S. m) ATCC 25175. Briefly: MIC by micro-dilution method. Type of test: cell-based. To be noted: no unit in table; dilution series 250-0.12 mg/L, ceiling 250 ppm; 37°C, 18-24 h. The protocol: (§3) A single colony was picked from the Trypticase Digested Soybean peptone agar blood plate (TSA5B) of ordinarily stored bacteria species and used to inoculate corresponding broth culture medium, which was cultivated in a microaerobic environment (P.g needs anaerobic cultivation) with 95% air, 5% CO2 at 37.0° C.±1.0° C., wherein S.m was cultivated for 18-24 h, and the species were cultivated for 40-48 h. Then corresponding broth cultivate medium was used to adjust the turbidity of the bacteria suspension to 0.5^# McFarland standard, equivalent to 1.0×10^8 CFU/mL.
(§4) The operating steps were:
(§5) a. Preparation of the stock solution of antibacterial pharmaceutical: 1% stock solution of various antibacterial pharmaceuticals was prepared with 100% pure ethanol as solvent. The prepared stock solution was filtered to eliminate bacteria, and was distributed into small portions to be used.
(§6) b. Range of measured concentration: the present experiment used 250 ppm as the ceiling measured concentration of the anti-bacterial pharmaceutical.
(§7) c. Measuring method: micro-dilution method.
(§8) First, 100 μL broth medium was added to each well of the 96-well plate, then 100 μL sterile anti-bacteria pharmaceutical solution, which was diluted 10-fold (1000 mg/L), was added to each hole of the first column. Then each well of the first column was mixed repeatedly for 7-8 times using a multi-channel micropipet, and 100 μL sample was transferred to the second column after sufficiently mixing the pharmaceutical with TSB. After being similarly mixed for 7-8 times, 100 μL sample was transferred to the third column, and likewise to the wells of the remaining columns. Thus the concentration of the pharmaceutical was gradiently diluted 2-fold between the columns, from 500 mg/L in the first column to 0.24 mg/L in the last column (the 12th column).
(§9) The bacteria to be tested and standard bacteria were prepared as above. Both bacteria solutions were diluted with broth medium to a bacteria content of about 10^6 CFU/mL. Then 100 μL was inoculated into each well of the 96-well plate containing the anti-bacterial pharmaceutical. Thus the final diluted concentrations of the anti-bacteria pharmaceutical in each column were 250, 125, 62.5 . . . 0.12 mg/L, and the final inoculation quantity is about […] in each well. The 96-well plate was placed on a microshaker and shaken for 1 min to mix the solutions in each well. The microwell plate was covered and sealed with adhesive paper to reduce the evaporation during the incubation process. The plate was placed in a humid box, cultivated in microaerobic environment with 95% air, 5% CO2 (or in anaerobic environment with 90% N2, 5% H2, 5% CO2) at 37.0° C.±1.0° C. for 18-24 h. The 96-well plate is placed under an enzyme-labeling instrument. The growth characteristics of the tested bacteria were compared with the standard bacteria to determine the MIC, which was the lowest anti-bacterial pharmaceutical concentration contained in the well without bacterial growth.

Test [3] concerns Porphyromonas gingivalis (P. g) ATCC 33277. Put plainly: MIC by micro-dilution method. Type of test: cell-based. The note with it: no unit in table; dilution series 250-0.12 mg/L, ceiling 250 ppm; anaerobic, 37°C, 18-24 h. The protocol: as §3, §4, §5, §6, §7, §8, §9
Test [4] concerns Streptococcus sanguis (S. sa) ATCC 10556. Put plainly: MIC by micro-dilution method. To be noted: no unit in table; dilution series 250-0.12 mg/L, ceiling 250 ppm; 37°C, 18-24 h. Type of test: cell-based. The protocol: as §3, §4, §5, §6, §7, §8, §9
Test [5] has as its system Actinomyces naeslundii (A. n) ATCC 12104. Put plainly: MIC by micro-dilution method. Type of test: cell-based. To be noted: no unit in table; dilution series 250-0.12 mg/L, ceiling 250 ppm; 37°C, 18-24 h. The protocol: as §3, §4, §5, §6, §7, §8, §9
In test [6] the test system is Fusobacterium nucleatum subsp. Polymorphum (F. n) ATCC 10953. Briefly: MIC by micro-dilution method. Type of test: cell-based. The note with it: no unit in table; dilution series 250-0.12 mg/L, ceiling 250 ppm; 37°C, 18-24 h. As for the experimental part:
as §3, §4, §5, §6, §7, §8, §9

Test [7] has as its system Actinomyces viscosus (A. v) ATCC 27044. Put plainly: MIC by micro-dilution method. Type of test: cell-based. To be noted: no unit in table; dilution series 250-0.12 mg/L, ceiling 250 ppm; 37°C, 18-24 h. As for the experimental part: as §3, §4, §5, §6, §7, §8, §9
Test [8] concerns Actinobacillus actinomycetemcomitans (A. a) ATCC 43717. Put plainly: MIC by micro-dilution method. Type of test: cell-based. To be noted: no unit in table; dilution series 250-0.12 mg/L, ceiling 250 ppm; 37°C, 18-24 h. As for the experimental part: as §3, §4, §5, §6, §7, §8, §9
In another test the test system is IL-1β (interleukin). Briefly: LUMINEX liquid-phase chip analysis of KB cell supernatant, IL-1β. Type of test: cell-based, human. The note with it: KB cells; the larger the value, the stronger the anti-inflammatory ability; concentration not given. The protocol: as §1, §2

For `CC(C)=CCc1c(-c2ccc(O)cc2O)oc2c3c(cc(O)c2c1=O)OC(C)(C)C=C3` [Morusin, 2-(2,4-dihydroxyphenyl)-5-hydroxy-8,8-dimethyl-3-(3-methyl-2-butenyl)-4H,8H-Benzo(1,2-b:3,4-b′)dipyran-4-one], the “anti-inflammatory effect, IL-6 (interleukin)” value in the test with IL-6 (interleukin) amounted to 49%. Also, the “anti-inflammatory effect, TNF-α (Tumor Necrosis Factor)” value in test [1] was determined as 91%. Further, in the test with GM-CSF, the “anti-inflammatory effect, GM-CSF” value is reported as 9%. The “50% inhibitory concentration (Prostaglandin E2 result)” value in the test on Prostaglandin E2 (PGE2) is 0.02 ppm. The “MIC, S. m ATCC 25175” value in test [2] came to 3.9. In addition, the “MIC, P. g ATCC 33277” value in test [3] stood at 1.9. The “MIC, S. sa ATCC 10556” value in [4] is on record as 3.9. Further, in [5], the “MIC, A. n ATCC 12104” value was determined as 1.9. In [6], the “MIC, F. n ATCC 10953” value is 15.6. Further, the “MIC, A. v ATCC 27044” value in test [7] was 2.4. Further, the “MIC, A. a ATCC 43717” value in test [8] was 2.4. Besides, the “anti-inflammatory effect, IL-1β (interleukin)” value with IL-1β (interleukin) stood at 20%.
As to `Oc1cc(Cl)ccc1Oc1ccc(Cl)cc1Cl` [Triclosan], the “anti-inflammatory effect, IL-6 (interleukin)” value with IL-6 (interleukin) came out at 31%. The “anti-inflammatory effect, TNF-α (Tumor Necrosis Factor)” value in test [1] came to 81%. In addition, the “anti-inflammatory effect, GM-CSF” value in the test on GM-CSF is 5%. Further, the “50% inhibitory concentration (Prostaglandin E2 result)” value in the test with Prostaglandin E2 (PGE2) is on record as roughly 0.02 ppm. In test [2], the “MIC, S. m ATCC 25175” value turned out to be 3.9. In [3], the “MIC, P. g ATCC 33277” value stood at 7.8. In addition, in [4], the “MIC, S. sa ATCC 10556” value is 7.8. The “MIC, A. n ATCC 12104” value in [5] was determined as 3.9. Further, the “MIC, F. n ATCC 10953” value in test [6] came out at 7.8. For the same compound, the “MIC, A. v ATCC 27044” value in [7] is reported as 3.9. Moreover, the “MIC, A. a ATCC 43717” value in test [8] came to 1.95. Further, the “anti-inflammatory effect, IL-1β (interleukin)” value in the test with IL-1β (interleukin) came out at 7%.

The record behind these values is US20080286213A1, “Pharmaceuticals for treating or preventing oral diseases” (HAWLEY & HAZEL (BVI) COMPANY LIMITED, priority 2007, published 2008).
